Results from patent publication US10106523B2, “Amide compound” (ASTELLAS PHARMA INC., priority 2014, dated 2018).

Molecular target: rat EP4 receptor (Rattus norvegicus, UniProt P43114)
Assay: Evaluation test of rat EP4 receptor affinity ([3H]PGE2 binding, membrane fraction of HEK-293 cells)
Parameters: expressed in transfected cells; host or cells: HEK-293 (ATCC CRL-1573), transient
Conditions: 0.3 nmol/L [3H]PGE2, rat EP4 cell membrane fraction, room temperature 1 hour; read-out: Ki value with respect to the rat EP4 receptor
Protocol: Test Example 1: Evaluation Test of Rat EP4 Receptor Affinity
Construction of Rat EP4 Receptor Expressing Vector:
A rat EP4 receptor gene (GenBank accession No.: NM_032076.1) was transfected into an expression vector pcDNA3.1-V5-His-TOPO (Invitrogen Inc.).
Transient Expression of Rat EP4 Receptor:
The expression vector of a rat EP4 receptor was transfected into an HEK-293 cell (ATCC No.: CRL-1573). The transfection was carried out according to an appended instruction, using Lipofectoamine (registered trademark) 2000 reagent (Invitrogen Inc.). After the transfection, the cells were cultured in an α-MEM culture medium for 20 to 24 hours.
Preparation of Membrane Fraction:
The culture medium was removed by aspiration, 10 mL of cooled phosphate buffered saline (PBS) was added thereto per 15 cm dish, and the cells were scraped using a cell scraper (Sumitomo Bakelite). […]
[^3H]PGE2 and a cell membrane fraction were diluted with an assay buffer (50 mmol/L HEPES-NaOH, 10 mmol/L MgCl2, pH 7.5), and the test compound and unlabeled PGE2 (Cayman) were diluted with DMSO and the assay buffer. […] The radioactivity was measured using a TopCount (Perkin Elmer). […] The specific binding amount was determined by subtracting the non-specific binding amount from the total binding amount. The Ki value was calculated according to a standard method.

Sequence of rat EP4 receptor (P43114 whole entry): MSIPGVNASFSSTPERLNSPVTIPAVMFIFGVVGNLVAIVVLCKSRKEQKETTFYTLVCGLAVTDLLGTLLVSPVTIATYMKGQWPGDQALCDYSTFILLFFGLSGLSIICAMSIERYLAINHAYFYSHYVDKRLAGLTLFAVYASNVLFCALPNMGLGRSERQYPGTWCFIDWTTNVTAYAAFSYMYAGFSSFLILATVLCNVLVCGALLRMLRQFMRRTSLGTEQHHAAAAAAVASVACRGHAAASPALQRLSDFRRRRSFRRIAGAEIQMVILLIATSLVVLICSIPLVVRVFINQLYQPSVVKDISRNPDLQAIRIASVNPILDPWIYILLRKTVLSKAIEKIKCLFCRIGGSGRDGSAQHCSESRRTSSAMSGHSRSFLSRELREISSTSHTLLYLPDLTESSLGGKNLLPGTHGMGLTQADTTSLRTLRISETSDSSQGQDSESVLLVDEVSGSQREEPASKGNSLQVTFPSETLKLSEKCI

Ki: 140 nM
Compound: Cc1cc(C(=O)N[C@@H](C)c2ccc(C(=O)O)cc2)n(Cc2ccc(Cl)cc2)n1 [Example 205 in Patent Document 1, reference compound]
